In publication PMC6063907, “Metal-cation regulation of enzyme dynamics is a key factor influencing the activity of S-adenosyl-L-homocysteine hydrolase from Pseudomonas aeruginosa” (Scientific Reports, 2018):
Read-outs that look alike come from different tables or passages of the source.

Tests used:
[1] = target: T1, wild type (WT) PaSAHase (Pseudomonas aeruginosa, UniProt Q9I685); assay type: biochemical; settings: WT enzyme; for kcat/KM: 100 mM MeCl, 25 mM HEPES·MeOH pH 7.5, substrate SAH, 293 K, ± SEM
T1 construct: His-tag with TEV site (from vector pMCSG57) (N, cleaved yes); made in house; host or cells: E. coli BL21-CodonPlus(DE3)-RIPL
Procedure: (§1) Assays for PaSAHase activity in the hydrolytic direction were carried out spectrophotometrically and the rate of L-homocysteine (Hcy) formation was measured by monitoring its reaction with 5,5′-dithiobis(2-nitrobenzoic acid) (DTNB)[21]. Assays were performed in 3 mL volume in a buffer containing 100 mM MeCl (where Me^+ corresponds to Li^+, Na^+, K^+, Rb^+, or Cs^+ ion) and 25 mM HEPES·MeOH pH 7.5, or a buffer containing 100 mM Tris·HCl pH 7.5. For the Q65A mutein, the experiments were conducted in a buffer containing 100 mM KCl and 25 mM HEPES·KOH pH 7.5. The buffers were supplemented with six units of adenosine deaminase, 100 μM DTNB, and 0.32 μM of PaSAHase or its mutein. The reaction was initiated by the addition of S-adenosyl-L-homocysteine (SAH) at a final concentration from 2.5 to 200 μM. The conversion of Hcy to Hcy-TNB was carried out at 293 K. The reaction progress was measured for one minute and monitored at 412 nm using a U-3900H spectrophotometer (Hitachi). Initial velocity parameters were estimated from the linear region of the recorded curve.
(§2) For the inhibition study, PaSAHase (0.35 μM) in a buffer containing 100 mM KCl and 25 mM Tris·HCl pH 7.5 was incubated with Zn^2+ at different concentrations, ranging from 0.165 to 20 μM. The reaction was initiated by the addition of SAH at a final concentration of 85 μM. The enzymatic activity was followed in the hydrolytic direction by monitoring homocysteine formation via its reaction with DNTB to determine the IC50 constant. For the sample without the addition of Zn^2+ ions, 100% activity was assigned. All measurements were performed in duplicates. The experimental data were analyzed with the GraFit 7.0 software (Erithacus) to obtain the kinetic parameters of the enzymatic reactions: substrate affinity (KM), activity (Vmax), as well as catalytic rate (kcat) or IC50 value for inhibition. The IC50-to-Ki converter[61] was applied to calculate the inhibition constant (Ki) for Zn^2+ ions using the noncompetitive model of inhibition.

[2] = target: T2, Q65A PaSAHase (Pseudomonas aeruginosa, UniProt Q9I685, Q65A); assay type: biochemical; settings: Q65A mutein, 100 mM KCl, 25 mM HEPES·KOH pH 7.5, substrate SAH, 293 K; ± SEM
T2 construct: His-tag with TEV site (from vector pMCSG57) (N, cleaved yes); made in house; host or cells: E. coli BL21-CodonPlus(DE3)-RIPL
Procedure: as §1, §2

[3] = target: T3, PaSAHase (Pseudomonas aeruginosa, UniProt Q9I685); experiment: ITC titration of PaSAHase with metal ions (Zn^2+, K^+); assay type: binding
T3 construct: His-tag with TEV site (from vector pMCSG57) (N, cleaved yes); made in house; host or cells: E. coli BL21-CodonPlus(DE3)-RIPL
T3 sequence (Q9I685 1-469): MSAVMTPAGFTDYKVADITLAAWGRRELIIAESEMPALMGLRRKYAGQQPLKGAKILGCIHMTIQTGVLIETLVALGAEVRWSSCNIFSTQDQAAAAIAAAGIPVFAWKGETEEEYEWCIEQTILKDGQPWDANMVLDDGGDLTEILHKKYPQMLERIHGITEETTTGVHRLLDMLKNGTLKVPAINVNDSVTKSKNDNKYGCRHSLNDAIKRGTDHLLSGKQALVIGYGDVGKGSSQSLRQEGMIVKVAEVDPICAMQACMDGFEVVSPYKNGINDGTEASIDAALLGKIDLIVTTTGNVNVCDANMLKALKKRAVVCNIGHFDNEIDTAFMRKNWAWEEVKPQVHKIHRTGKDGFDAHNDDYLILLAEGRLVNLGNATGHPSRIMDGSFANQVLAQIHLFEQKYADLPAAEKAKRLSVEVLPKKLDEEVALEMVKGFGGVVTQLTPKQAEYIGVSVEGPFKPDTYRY
Procedure: (§3) ITC measurements were performed at 293 K using a MicroCal iTC200 calorimeter (GE Healthcare). For the adenosine binding studies, the wild type protein was dialyzed against a buffer containing 100 mM MeCl and 25 mM HEPES·MeOH pH 7.5, or an alkali-cation-free buffer containing 100 mM Tris·HCl pH 7.5. The experiment for the Q65A mutein was conducted in a buffer containing 100 mM KCl and 25 mM HEPES·KOH pH 7.5. The final protein concentrations were in the range of 100–120 µM. Adenosine was dissolved in the dialysis buffers to the concentrations of 0.6 to 1.0 mM. The K^+ ion binding study was conducted in 50 mM Tris·HCl pH 7.5 at PaSAHase concentration of 70 μM. The protein was titrated with 1 mM KCl in 50 mM Tris·HCl pH 7.5. The Zn^2+ ion binding study was conducted in a buffer containing 100 mM KCl and 50 mM Tris·HCl pH 7.5 at PaSAHase concentration of 45 μM. The protein was titrated with 2 mM ZnCl2. In all ITC experiments the ligand was injected to the protein solution (300 μL) in 2 µL aliquots until saturation was observed. The protein concentrations were estimated by the Bradford method and are presented for a single PaSAHase subunit. The raw ITC data were analyzed with the ORIGIN 7.0 software (OriginLab) to obtain the thermodynamic parameters of the complexation reactions: stoichiometry (N), dissociation constant (Kd), as well as changes in enthalpy (ΔH) and entropy (ΔS). For sigmoidal titration curves, the one set of sites model was fitted and N was obtained from the experiment. For hyperbolic curves, for which the determination of N is impossible, N was fixed while fitting the same model. All measurements were performed in duplicates.

[4] = target: T3, PaSAHase; experiment: Time course of PaSAHase inactivation by 2′-deoxyadenosine (NADH formation, spectrofluorimetric); assay type: biochemical
Procedure: The measurements were performed at 293 K using an F-7000 spectrofluorotometer (Hitachi) in the volume of 1 mL. Irreversible formation of the reduced form of the cofactor (NADH) was monitored spectrofluorometrically by excitation at 340 nm and measurement of emission at 460 nm, as described previously. The influence of K^+ and Rb^+ ions on the time-dependent inactivation of the enzyme was carried out for 15 μM PaSAHase in a buffer containing 100 mM KCl or RbCl, 25 mM HEPES·KOH or HEPES·RbOH pH 7.5, and 1 mM TCEP·HCl. In the first experiment, the reaction was initiated by the addition of 2′-deoxyadenosine to the final concentration of 5 mM. In the second experiment, the enzyme was incubated for 2 hours with 100 μM adenosine and subsequently 2′-deoxyadenosine was added at a final concentration of 200 μM. After one minute the reaction was monitored for 4000 seconds (first experiment) or until the intensity of fluorescence emission reached a plateau (second experiment). An analogous experiment was carried out to analyze the influence of Zn^2+ cations on the enzyme. […] The cofactor conversion reaction was initiated by the addition of 2′-deoxyadenosine to the final concentration of 5 mM and after one minute was monitored for 5000 seconds.

[5] = target: T3, PaSAHase; experiment: Inhibition of PaSAHase by Zn^2+ ions (DTNB assay); assay type: biochemical; settings: 100 mM KCl; for Ki: calculated from IC50 with IC50-to-Ki converter, noncompetitive model, 25 mM Tris·HCl pH 7.5, SAH 85 μM, enzyme 0.35 μM, read-out: inhibitory constant Ki
Procedure: as §2

[6] = target: T1, wild type (WT) PaSAHase; experiment: ITC titration of wild type PaSAHase with adenosine; assay type: binding; settings: for stoichiometry (N) / ΔH / ΔS / Kd: pH 7.5, 293 K; for Kd: dissociation constant Kd
Procedure: as §3

[7] = target: T2, Q65A PaSAHase; experiment: ITC titration of Q65A PaSAHase with adenosine; assay type: binding
Procedure: as §3

[8] = target: human placental SAHase; parameters: method as in PMID 17892301; settings: read-out: inhibition constant; cited from earlier work
[9] = target: the molecule itself; experiment: SEC; Superdex 200 gel filtration in buffer D (100 mM KCl, 25 mM HEPES-KOH pH 7.5, 1 mM TCEP-HCl), after reconstitution with NAD+
[10] = Q65A, 100 mM K^+, pH 7.5, 293 K

T2 sequence (Q9I685 whole entry Q65A): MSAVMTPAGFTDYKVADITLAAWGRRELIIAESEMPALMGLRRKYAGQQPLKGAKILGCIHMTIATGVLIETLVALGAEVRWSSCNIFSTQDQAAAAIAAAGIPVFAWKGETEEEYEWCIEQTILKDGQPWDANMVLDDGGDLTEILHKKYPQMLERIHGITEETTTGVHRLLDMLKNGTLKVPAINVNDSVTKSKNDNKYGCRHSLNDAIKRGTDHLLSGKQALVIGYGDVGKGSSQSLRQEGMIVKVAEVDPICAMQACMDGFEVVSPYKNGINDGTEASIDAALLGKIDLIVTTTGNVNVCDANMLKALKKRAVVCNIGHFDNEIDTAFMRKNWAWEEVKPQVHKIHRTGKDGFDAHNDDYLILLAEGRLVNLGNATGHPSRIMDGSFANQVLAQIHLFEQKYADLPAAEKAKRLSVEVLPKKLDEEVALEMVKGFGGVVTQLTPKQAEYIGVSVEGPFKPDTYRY

[Cs+] [Cs^+]
kcat/KM [1]: 6668 ± 333 M⁻¹ s⁻¹

[K+] [K^+]
kcat/KM [2]: 5322 ± 358 M⁻¹ s⁻¹ | kcat/KM [1]: 72502 ± 4858 M⁻¹ s⁻¹ | heat effect of ITC titration of ligand- and alkali-metal-free PaSAHase ([3]; 50 mM Tris·HCl pH 7.5, 70 μM PaSAHase, titrated with 1 mM KCl): No effect other than K^+ dilution heat

[Li+] [Li^+]
kcat/KM [1]: 731 ± 143 M⁻¹ s⁻¹

[Na+] [Na^+]
kcat/KM [1]: 8467 ± 940 M⁻¹ s⁻¹

[Rb+] [Rb^+]
kcat/KM [1]: 3568 ± 237 M⁻¹ s⁻¹ | mode of inhibition ([1]; 100 mM RbCl, kinetics with SAH): noncompetitive inhibitor | drop of kcat compared with K^+ ([1]; relative to kcat in the presence of K^+): ~33 fold | rate of NADH formation compared with K^+ ([4]; enzyme first incubated with 100 μM adenosine, then 200 μM 2′-deoxyadenosine added, 100 mM RbCl): significantly lower

[Zn+2] [Zn^2+]
mode of inhibition ([5]; 25 mM Tris·HCl pH 7.5): very strong noncompetitive inhibitor | Ki ([5]; listed as zinc): ~15 nM | Ki [5]: 15 nM | stoichiometry of protein:Zn^2+ binding, per one subunit ([3]; 100 mM KCl, 50 mM Tris·HCl pH 7.5, 45 μM enzyme, 2 mM ZnCl2, 293 K): 0.90 ± 0.06 | Kd ([3]; 100 mM KCl, 50 mM Tris·HCl pH 7.5, 45 μM enzyme, 2 mM ZnCl2, 293 K, read-out: apparent binding constant Kd): 12700 ± 2900 nM | rate of NADH formation ([4]; 100 mM KCl, enzyme incubated with adenosine (200 μM) and ZnCl2 (1, 5 or 10 μM), then 5 mM 2′-deoxyadenosine): gradually decreased with increasing Zn^2+ concentration

Nc1ncnc2c1ncn2[C@@H]1O[C@H](CO)[C@@H](O)[C@H]1O [adenosine]
stoichiometry (N) ([6]; 100 mM Cs^+): 0.94 ± 0.02 | ΔH ([6]; 100 mM Cs^+): -4.174 ± 0.115 kcal/mol | ΔS ([6]; 100 mM Cs^+): 10.1 cal/mol/° | stoichiometry (N) ([6]; 100 mM K^+): 0.80 ± 0.01 | ΔH ([6]; 100 mM K^+): -9.665 ± 0.237 kcal/mol | ΔS ([6]; 100 mM K^+): −5.9 cal/mol/° | stoichiometry (N) ([6]; 100 mM Na^+): 0.97 ± 0.02 | ΔH ([6]; 100 mM Na^+): -3.891 ± 0.114 kcal/mol | ΔS ([6]; 100 mM Na^+): 9.8 cal/mol/° | stoichiometry (N) ([6]; 100 mM Rb^+): 0.84 ± 0.01 | ΔH ([6]; 100 mM Rb^+): -8.935 ± 0.137 kcal/mol | ΔS ([6]; 100 mM Rb^+): −4.2 cal/mol/° | Kd ([6]; 100 mM Cs^+): 4700 ± 600 nM | Kd ([6]; 100 mM K^+): 1200 ± 200 nM | Kd ([6]; 100 mM Na^+): 8800 ± 1000 nM | Kd ([6]; 100 mM Rb^+): 1800 ± 200 nM | heat effect of ITC titration ([6]; in the absence of any alkali metals or the presence of Li^+ ions): immeasurably small | Kd [7]: 7300 ± 400 nM | stoichiometry (N) [7, 10]: 0.236 ± 0.004 | ΔH [7, 10]: -7.447 ± 0.167 kcal/mol

[Cu+2] [copper]
Ki [8]: ~25 nM

B1: S-adenosyl-L-homocysteine hydrolase from Pseudomonas aeruginosa (enzyme, Pseudomonas aeruginosa PAO1)
chain: SNAMSAVMTPAGFTDYKVADITLAAWGRRELIIAESEMPALMGLRRKYAGQQPLKGAKILGCIHMTIQTGVLIETLVALGAEVRWSSCNIFSTQDQAAAAIAAAGIPVFAWKGETEEEYEWCIEQTILKDGQPWDANMVLDDGGDLTEILHKKYPQMLERIHGITEETTTGVHRLLDMLKNGTLKVPAINVNDSVTKSKNDNKYGCRHSLNDAIKRGTDHLLSGKQALVIGYGDVGKGSSQSLRQEGMIVKVAEVDPICAMQACMDGFEVVSPYKNGINDGTEASIDAALLGKIDLIVTTTGNVNVCDANMLKALKKRAVVCNIGHFDNEIDTAFMRKNWAWEEVKPQVHKIHRTGKDGFDAHNDDYLILLAEGRLVNLGNATGHPSRIMDGSFANQVLAQIHLFEQKYADLPAAEKAKRLSVEVLPKKLDEEVALEMVKGFGGVVTQLTPKQAEYIGVSVEGPFKPDTYRY
notes: short tripeptide (SNA-) cloning artifact that extends the N-terminus of the purified protein; S-adenosyl-L-homocysteine hydrolase, Pseudomonas aeruginosa PAO1; about 53 kDa by SDS-PAGE; Batches were either Zn2+-containing or freed of Zn2+ with TPEN; The vector pMCSG57 is named, the tag itself is not; also called PaSAHase; SAHase
stoichiometry N [9]: 4
